Assay [1] has as its target T1, uPAR-expressing HEC-265 human endometrial adenocarcinoma cells (Homo sapiens, UniProt Q03405).
T1 construct: Cell surface uPAR-expressing HEC-265 human endometrial adenocarcinoma cells; host or cells: HEC-265
Kind of assay: Competitive FACS binding assay. The note with it: pIC50 category of FACS binding. The gist of the method: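 Competitive displacement of a 10 nM biotinylated peptide from HEC-265 cells (1 h, 4 °C, PBS/1% BSA), detected via APC-streptavidin by flow cytometry. pIC50 from four-parameter logistic fit of median fluorescence versus concentration.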

Another assay concerns the target T2, human uPAR (uPAR-Fc) (Homo sapiens, UniProt Q03405).
T2 construct: comprising amino acids Leu23-Arg303 according to UniProt entry Q03405.1; purchased R&D Systems 10378-UK-100
In words: Surface plasmon resonance (SPR) assay, single cycle kinetics. The class given is binding. The note with it: pKD category for uPAR SPR activity assay, uPAR-Fc on Protein A-Chip, 25°C, read-out: pKD CAT (converted). The gist of the method: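 uPAR-Fc (Leu23-Arg303 extracellular domains, human IgG1 Fc) captured on Protein A chip to ~2000 RU; single-cycle kinetics at 25°C in HEPES running buffer pH 7.4 with 0.1% DMSO. KD from double-referenced sensorgrams fitted to 1:1 Langmuir model, reported as pKD.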

Read-outs that look alike come from different tables or passages of the source. Where a SMILES comes first, the peptide text is derived from it. Bridges are numbered along the chain shown (N, C = ends). [ ]: non-standard residue; d: D form. The star is where a group is joined. DOTA = O=C(O)CN1CCN(CC(=O)O)CCN(CC(=O)*)CCN(CC(=O)O)CC1; 2Nal = N[C@@H](Cc1ccc2ccccc2c1)C(=O)O; Hyp = O=C(O)[C@@H]1C[C@@H](O)CN1; Pentanoyl(4-Me) = CC(C)CCC(=O)*; 2Thi = N[C@@H](Cc1cccs1)C(=O)O; Cit = NC(=O)NCCC[C@H](N)C(=O)O; NMeOrn = CN[C@@H](CCCN)C(=O)O; Butoxycarbonyl = CCCCOC(=O)*; Pen = CC(C)(S)[C@H](N)C(=O)O; Pip = O=C(O)[C@@H]1CCCCN1; Nle = CCCC[C@H](N)C(=O)O; dNMeA = CN[C@H](C)C(=O)O; Api = NC1(C(=O)O)CCNCC1; Nva = CCC[C@H](N)C(=O)O; Abu = CC[C@H](N)C(=O)O; Pentanoyl = CCCCC(=O)*

T1 sequence (Q03405 23-335): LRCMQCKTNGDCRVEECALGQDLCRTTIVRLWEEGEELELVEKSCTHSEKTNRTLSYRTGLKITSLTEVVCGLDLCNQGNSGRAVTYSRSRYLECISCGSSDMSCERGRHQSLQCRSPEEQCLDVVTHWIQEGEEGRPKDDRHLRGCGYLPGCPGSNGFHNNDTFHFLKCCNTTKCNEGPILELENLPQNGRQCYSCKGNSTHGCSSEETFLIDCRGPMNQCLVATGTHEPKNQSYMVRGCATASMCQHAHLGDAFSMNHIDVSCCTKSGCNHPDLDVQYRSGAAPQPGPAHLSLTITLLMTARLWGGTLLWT
T2 sequence (Q03405 23-303): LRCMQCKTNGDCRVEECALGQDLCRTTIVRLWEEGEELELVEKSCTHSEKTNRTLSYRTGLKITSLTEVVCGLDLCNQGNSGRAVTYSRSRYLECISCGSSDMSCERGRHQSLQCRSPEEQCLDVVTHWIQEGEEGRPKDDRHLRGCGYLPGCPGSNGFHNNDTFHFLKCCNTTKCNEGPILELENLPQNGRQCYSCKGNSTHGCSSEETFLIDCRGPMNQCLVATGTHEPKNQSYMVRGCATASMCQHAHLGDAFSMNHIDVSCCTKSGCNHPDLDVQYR

The compound `CC[C@@H]1NC(=O)[C@H]([C@@H](C)CC)NC(=O)[C@@H](C)NC(=O)[C@@H]2CCCN2C(=O)[C@H](Cc2ccccc2)NC(=O)[C@H](Cc2ccc(O)cc2)NC(=O)[C@H](CCC(N)=O)NC(=O)[C@H](CCCNC(N)=O)NC(=O)[C@@H](NC(=O)CCC(C)C)CSSC[C@@H](C(N)=O)NC1=O` [UPAR-451, iHex-[Cys-Cit-Gln-Tyr-Phe-Pro-ala-Ile-Abu-Cys]-NH2] ({Pentanoyl(4-Me)}-C[Cit]QYFP[dA]I[Abu]C-NH2; disulfide 1-10) had an IC50 in assay [1] not above 10 nM. On human uPAR (uPAR-Fc) (single cycle kinetics), the Kd was 1.58 to 10 nM.
For `CCCC[C@@H]1NC(=O)[C@H](CCCNC(=N)N)NC(=O)[C@@H](NC(=O)[C@H](CC(C)C)NC(=O)[C@H](CC(=O)O)NC(C)=O)CSSC[C@H](C(N)=O)NC(=O)[C@H](CC(C)C)NC(=O)[C@H]([C@@H](C)CC)NC(=O)[C@H](C)NC(=O)[C@@H]2CCCN2C(=O)[C@H](Cc2ccccc2)NC(=O)[C@H](Cc2ccc(O)cc2)NC1=O` [UPAR-323, Ac-Asp-Leu-[Cys-Arg-Nle-Tyr-Phe-Pro-Ala-Ile-Leu-cys]-NH2] (Ac-DLCR[Nle]YFPAIL[dC]-NH2; disulfide 3-12), the IC50 in assay [1] is 12.6 to 31.6 nM. Moreover, the Kd on human uPAR (uPAR-Fc) is 1.58 to 10 nM.
The corresponding values for `CCCCC(=O)N[C@H]1CSSC[C@@H](C(N)=O)NC(=O)[C@H](CCC)NC(=O)[C@H]([C@@H](C)CC)NC(=O)[C@@H]2C[C@@H](O)CN2C(=O)[C@@H]2CCCN2C(=O)[C@H](Cc2ccccc2)NC(=O)[C@H](Cc2ccc(O)cc2)NC(=O)C2(CCN(C(=O)CN3CCN(CC(=O)O)CCN(CC(=O)O)CCN(CC(=O)O)CC3)CC2)NC(=O)[C@H]([C@@H](C)O)NC1=O` [UPAR-288, Pent-[Cys-Thr-Apc(DOTA)-Tyr-Phe-Pro-Hyp-Ile-Nva-Cys]-NH2] (Pentanoyl-CT[Api](DOTA)YFP[Hyp]I[Nva]C-NH2; disulfide 1-10) are not above 10 nM and less than 1.58 nM.
As for `CCCCC(=O)N[C@@H]1C(=O)N[C@@H](CCCNC(N)=O)C(=O)N[C@@H](CCC(N)=O)C(=O)N[C@@H](Cc2ccc(O)cc2)C(=O)N[C@@H](Cc2ccccc2)C(=O)N2CCC[C@H]2C(=O)N2C[C@H](O)C[C@H]2C(=O)N[C@@H]([C@@H](C)CC)C(=O)N[C@@H](CCC)C(=O)N[C@H](C(N)=O)CSSC1(C)C` [UPAR-397, Pent-[Pen-Cit-Gln-Tyr-Phe-Pro-Hyp-Ile-Nva-Cys]-NH2] (Pentanoyl-[Pen][Cit]QYFP[Hyp]I[Nva]C-NH2; disulfide 1-10), the IC50 in assay [1] was not above 10 nM. Further, the Kd at human uPAR (uPAR-Fc) (single cycle kinetics) was less than 1.58 nM.
In the same order, the values of `CCCCC(=O)N[C@H]1CSSC[C@@H](C(N)=O)NC(=O)[C@H](COC)NC(=O)[C@H]([C@@H](C)CC)NC(=O)[C@@H]2C[C@@H](O)CN2C(=O)[C@@H]2CCCN2C(=O)[C@H](Cc2ccccc2)NC(=O)[C@H](Cc2ccc(O)cc2)NC(=O)[C@H](CCCCNC(=O)CN2CCN(CC(=O)O)CCN(CC(=O)O)CCN(CC(=O)O)CC2)NC(=O)[C@H](CCCNC(N)=O)NC1=O` [UPAR-380, Pent-[Cys-Cit-Lys(DOTA)-Tyr-Phe-Pro-Hyp-Ile-Ser(Me)-Cys]-NH2] (Pentanoyl-C[Cit]K(DOTA)YFP[Hyp]IS(Me)C-NH2; disulfide 1-10) are not above 10 nM and 1.58 to 10 nM.
Take `CC[C@H](C)[C@@H]1NC(=O)[C@@H](C)NC(=O)[C@@H]2CCCN2C(=O)[C@H](Cc2ccc3ccccc3c2)NC(=O)[C@H](Cc2ccc(O)cc2)NC(=O)[C@H](CCC(N)=O)NC(=O)[C@H](CCCNC(N)=O)NC(=O)[C@@H](NC(=O)CCC(C)C)CSSC[C@@H](C(N)=O)NC(=O)[C@H](CC(C)C)NC1=O` [UPAR-147, iHex-[Cys-Cit-Gln-Tyr-2Ni-Pro-ala-Ile-Leu-Cys]-NH2] ({Pentanoyl(4-Me)}-C[Cit]QY[2Nal]P[dA]ILC-NH2; disulfide 1-10): the half-maximal inhibitory concentration (IC50) in assay [1] is 12.6 to 31.6 nM. At human uPAR (uPAR-Fc), the Kd is 10 to 100 nM.
The corresponding values for `CC[C@H](C)[C@@H]1NC(=O)[C@@H](C)NC(=O)[C@@H]2CCCCN2C(=O)[C@H](Cc2ccccc2)NC(=O)[C@H](Cc2ccc(O)cc2)NC(=O)[C@H](CCC(N)=O)NC(=O)[C@H](CCCNC(N)=O)NC(=O)[C@@H](NC(=O)CCC(C)C)CSSC[C@@H](C(N)=O)NC(=O)[C@H](CC(C)C)NC1=O` [UPAR-232, iHex-[Cys-Cit-Gln-Tyr-Phe-Pip-ala-Ile-Leu-Cys]-NH2] ({Pentanoyl(4-Me)}-C[Cit]QYF[Pip][dA]ILC-NH2; disulfide 1-10) are not above 10 nM and 1.58 to 10 nM.
`CCCCC(=O)N[C@H]1CSSC[C@@H](C(N)=O)NC(=O)[C@H](CCC)NC(=O)[C@H]([C@@H](C)CC)NC(=O)[C@@H]2C[C@@H](O)CN2C(=O)[C@@H]2CCCN2C(=O)[C@H](Cc2cccs2)NC(=O)[C@H](Cc2ccc(O)cc2)NC(=O)[C@H](CCCCNC(=O)CN2CCN(CC(=O)O)CCN(CC(=O)O)CCN(CC(=O)O)CC2)NC(=O)[C@H](CCCNC(N)=O)NC1=O` [UPAR-360, Pent-[Cys-Cit-Lys(DOTA)-Tyr-Thi-Pro-Hyp-Ile-Nva-Cys]-NH2] (Pentanoyl-C[Cit]K(DOTA)Y[2Thi]P[Hyp]I[Nva]C-NH2; disulfide 1-10) showed an IC50 in assay [1] not above 10 nM. In addition, the Kd at human uPAR (uPAR-Fc) (single cycle kinetics) is less than 1.58 nM.
Consider `CCCCC(=O)N[C@H]1CSSC[C@@H](C(N)=O)NC(=O)[C@H](CCC)NC(=O)[C@H]([C@@H](C)CC)NC(=O)[C@H](CCCN)N(C)C(=O)[C@@H]2CCCN2C(=O)[C@H](Cc2ccccc2)NC(=O)[C@H](Cc2ccc(O)cc2)NC(=O)[C@H](CCCCNC(=O)CN2CCN(CC(=O)O)CCN(CC(=O)O)CCN(CC(=O)O)CC2)NC(=O)[C@H](CCCNC(N)=O)NC1=O` [UPAR-265, Pent-[Cys-Cit-Lys(DOTA)-Tyr-Phe-Pro-Nmo-Ile-Nva-Cys]-NH2] (Pentanoyl-C[Cit]K(DOTA)YFP[NMeOrn]I[Nva]C-NH2; disulfide 1-10), for which the IC50 in assay [1] is 39.8 to 100 nM. For the same compound, at human uPAR (uPAR-Fc), the Kd was more than 100 nM.
The corresponding values for `CCCCOC(=O)N[C@H]1CSSC[C@@H](C(N)=O)NC(=O)[C@H](CCC)NC(=O)[C@H]([C@@H](C)CC)NC(=O)[C@@H]2C[C@@H](O)CN2C(=O)[C@@H]2CCCN2C(=O)[C@H](Cc2cccs2)NC(=O)[C@H](Cc2ccc(O)cc2)NC(=O)[C@H](CCCCNC(=O)CN2CCN(CC(=O)O)CCN(CC(=O)O)CCN(CC(=O)O)CC2)NC(=O)[C@H]([C@@H](C)O)NC1=O` [UPAR-134, Butoc-[Cys-Thr-Lys(DOTA)-Tyr-Thi-Pro-Hyp-Ile-Nva-Cys]-NH2] (Butoxycarbonyl-CTK(DOTA)Y[2Thi]P[Hyp]I[Nva]C-NH2; disulfide 1-10) are not above 10 nM and less than 1.58 nM.
The corresponding values for `CCCCC(=O)N[C@H]1CSSC[C@@H](C(N)=O)NC(=O)[C@H](CCC)NC(=O)[C@H]([C@@H](C)CC)NC(=O)[C@@H]2C[C@@H](O)CN2C(=O)[C@@H](C)N(C)C(=O)[C@H](Cc2ccccc2)NC(=O)[C@H](Cc2ccc(O)cc2)NC(=O)[C@H](CCC(N)=O)NC(=O)[C@H](CCCNC(=N)N)NC1=O` [UPAR-211, Pent-[Cys-Arg-Gln-Tyr-Phe-nma-Hyp-Ile-Nva-Cys]-NH2] (Pentanoyl-CRQYF[dNMeA][Hyp]I[Nva]C-NH2; disulfide 1-10) are not below 126 nM and more than 100 nM.
In the same order, the values of `CCCCC(=O)N[C@H]1CSSC[C@@H](C(N)=O)NC(=O)[C@H](CCC)NC(=O)[C@H]([C@@H](C)CC)NC(=O)[C@H](CC(=O)O)NC(=O)[C@@H]2CCCN2C(=O)[C@H](Cc2ccccc2)NC(=O)[C@H](Cc2ccc(O)cc2)NC(=O)[C@H](CCC(N)=O)NC(=O)[C@H](CCCNC(=N)N)NC1=O` [UPAR-344, Pent-[Cys-Arg-Gln-Tyr-Phe-Pro-Asp-Ile-Nva-Cys]-NH2] (Pentanoyl-CRQYFPDI[Nva]C-NH2; disulfide 1-10) are not above 10 nM and less than 1.58 nM.

The values are drawn from EP4610269A1, “UROKINASE PLASMINOGEN ACTIVATOR SURFACE RECEPTOR (UPAR) LIGANDS FOR DIAGNOSTIC OR THERAPEUTIC USE” (3B Pharmaceuticals GmbH, priority 2024, dated 2025).
